Source: PMC5045942, “Evaluation of a novel PXR‐knockout in HepaRG™ cells” (Pharmacology Research & Perspectives, 2016)
Values joined by “and” are separate entries in the source; they are usually repeats but may differ in a detail not shown here. Equal values may be shown once. Read-outs that look alike come from different tables or passages of the source.

Key:
[1] = test system: CYP2B6 mRNA; test: CYP2B6 mRNA induction in PXR-KO HepaRG cells (real-time PCR); type: in vitro ADME, human; conditions: for EC50 for CYP2B6 in PXR-KO cells in comparison to other cell types (in words): PXR-KO vs 5F cells / other cell types; for E max for CYP2B6 in PXR-KO cells in comparison to other cell types (in words): PXR-KO vs 5F, HepaRG WT cells and PHHs; for EC50 at 48 h: human
Procedure: (§1) 5F, CAR‐KO, and PXR‐KO HepaRG cells were thawed in recovery medium and plated into 96‐well collagen‐1‐coated plates at a volume of 200 μL/well. The cells were incubated at 37°C in a humidified incubator with 5% CO2 for 48 h. The recovery medium was replaced with maintenance medium and procedure repeated every Monday, Wednesday, and Friday for 18 days. On day 18, the maintenance medium was replaced with pre‐incubation medium for 72 h. On day 21, the cells were incubated with test compounds in serum‐free induction medium for 48 h. Test compounds were freshly dissolved in DMSO and then serum‐free induction medium to achieve a final DMSO concentration of 0.1% every 24 h. For enzyme induction assays, cells were thawed into recovery medium and plated into 24‐well plates at a volume of 1 mL/well. Culture conditions were as described above.
(§2) mRNA was extracted from the cell monolayers using the SV96 total RNA isolation system according to the manufacturer's instructions. Reverse transcription of mRNA to cDNA was completed using Taqman reverse transcription (RT) assay. […] An Agilent Mx3005P thermocycler was used to run a thermal cycle of: 10 min at 25°C, 30 min at 37°C, 5 min at 95°C, and a hold phase at 4°C.
(§3) An Agilent Mx3005P thermocycler was used to determine the gene expression of selected genes. Real‐time PCR solutions were prepared as described by the manufacturer. Each reaction contained 12.5 μL volume. […] PCR conditions were 15 min at 95°C (to activate polymerase, denature cDNA, and initiate PCR) followed by 40 cycles of 15 sec at 94°C (denaturation), and 60 sec at 60°C (annealing/extension of the product). Fluorescence was measured at the end of each cycle.
(§4) Gene expression data were compared to an average of GAPDH and normalized to the control sample using the comparative threshold cycle (C(t)) method (Ct = 2^−∆∆C(t)). […] Where possible data were fitted to a sigmoidal E max model (WinNonLin Phoenix, Pharsight, 6.3.0.395). All human hepatocyte data are the average of duplicate experiments and three compound concentrations. HepaRG WT are the average of triplicate experiments completed in duplicate. HepaRG 5F and HepaRG PXR‐KO data are the average of duplicate experiments and duplicate replicates of each compound concentration (six concentrations).

[2] = test system: CYP2B6 mRNA; test: CYP2B6 mRNA induction in 5F HepaRG control cells (real-time PCR); type: in vitro ADME, human; conditions: for E max, induction of CYP2B6 mRNA, 5F / EC50 / EC50 at 48 h: 5F cells; for EC50 at 48 h: human
Procedure: as §1, §2, §3, §4

[3] = test system: CYP3A4 mRNA; test: CYP3A4 mRNA induction in HepaRG wild-type cells (real-time PCR); conditions: for E max, induction of CYP3A4 mRNA, HepaRG: E max ± SD; for EC50: human
Procedure: (§5) HepaRG cells were thawed in thawing and maintenance medium and plated into 96‐well collagen‐1‐coated plates at a volume of 200 μL/well. The cells were incubated at 37°C in a humidified incubator with 5% CO2 for 72 h. Test compounds were freshly dissolved in DMSO and then serum‐free induction medium to achieve a final DMSO concentration of 0.1% every 24 h.
as §2, §3, §4

[4] = test system: CYP2B6 mRNA; test: CYP2B6 mRNA induction in HepaRG wild-type cells (real-time PCR); type: in vitro ADME, human; conditions: for E max, induction of CYP2B6 mRNA, HepaRG: E max ± SD; for EC50: human, EC50 ± SD
Procedure: as §5, §2, §3, §4

[5] = test system: CYP3A4 mRNA; test: CYP3A4 mRNA induction in PXR-KO HepaRG cells (real-time PCR)
Procedure: as §1, §2, §3, §4

[6] = test system: CYP3A4 mRNA; test: CYP3A4 mRNA induction in 5F HepaRG control cells (real-time PCR); conditions: for EC50 at 48 h: human, 5F HepaRG control cells; for EC50: read-out: EC50, induction of CYP3A4 mRNA, 5F
Procedure: as §1, §2, §3, §4

[7] = test system: CYP2B6 mRNA; test: CYP2B6 mRNA induction in cryopreserved primary human hepatocytes (real-time PCR); conditions: 48 h; for E max, induction of CYP2B6 mRNA, primary human hepatocyte donor D3: donor D3 (Hu8132)
Procedure: (§6) Cryopreserved male human hepatocytes were thawed in CHRM and plated into a 96‐well collagen‐1‐coated plate at a density of 7.5 × 10^4 viable cells in 200 μL of CHPM. Trypan blue exclusion was used to determine cell viability with a cut‐off of 85% viability. The cells were incubated at 37°C in a humidified incubator with 5% CO2. Plating medium was replaced with maintenance medium following 4 h incubation and then maintained overnight before 48 h treatment with test compound. Test compounds were freshly dissolved in dimethyl sulfoxide (DMSO) and then culture medium to achieve a final DMSO concentration of 0.1%. A vehicle control of medium with 0.1% DMSO was included in all studies.
as §2, §3
(§7) Gene expression data were compared to an average of GAPDH and normalized to the control sample using the comparative threshold cycle (C(t)) method (Ct = 2^−∆∆C(t)). […] Where possible data were fitted to a sigmoidal E max model (WinNonLin Phoenix, Pharsight, 6.3.0.395). All human hepatocyte data are the average of duplicate experiments and three compound concentrations.

[8] = test system: CYP2B6 mRNA; test: in vitro; conditions: human
Procedure: as §6, §2, §3, §7

[9] = test system: CYP3A4 mRNA; test: CYP3A4 mRNA induction in cryopreserved primary human hepatocytes (real-time PCR); conditions: for EC50 at 48 h: human, cryopreserved primary human hepatocytes
Procedure: (§8) The cells were incubated at 37°C in a humidified incubator with 5% CO2. Plating medium was replaced with maintenance medium following 4 h incubation and then maintained overnight before 48 h treatment with test compound. Test compounds were freshly dissolved in dimethyl sulfoxide (DMSO) and then culture medium to achieve a final DMSO concentration of 0.1%. A vehicle control of medium with 0.1% DMSO was included in all studies.
as §2, §3, §7

[10] = test system: CYP2B6; test: CYP2B6 enzyme activity induction (bupropion, LC-MS/MS) in PXR-KO and 5F cells; type: in vitro ADME, human; conditions: 1.5 μmol/L CITCO, 258 μmol/L phenobarbital; bupropion 100 μmol/L, 2 h; PXR-KO vs 5F cells (Fig. 3)
Procedure: Culture conditions were as described above.
P450 enzyme activity was assessed by incubating whole‐cell monolayers for 2 h at 37°C using 100 μmol/L bupropion (CYP2B6) in unsupplemented Williams E media with a final concentration of 0.1% DMSO. Reactions were quenched by removing supernatants and diluting 1:2 into ice‐cold acetonitrile. Samples were stored at −20°C until LC‐MS/MS analysis was completed.
LC‐MS/MS analysis utilized an API‐4000 Q Trap mass spectrometer with a Turbo V atmospheric pressure electrospray ionization source (AB SCIEX, Framingham, MA). Samples (40 μL) were injected onto a Fortis C18 column (3 × 50 mm, 5 μm) and eluted by a mobile phase gradient specific for each test article (mobile phase A: 0.1% formic acid in water; mobile phase B: 0.1% formic acid in acetonitrile). Flow rate was 0.5 mL/min. MS conditions: positive or negative ionization mode (4.5 kV spray voltage); source temperature of 450°C with multiple reaction monitoring specific for each analyte and internal standard parent–product ion pairs. Peak areas of analyte and internal standard and resulting ratios were quantified using Analyst 1.5.2 (AB SCIEX, Framingham, MA).

[11] = test system: CYP3A4 mRNA; conditions: human
Procedure: as §1, §2, §3, §4

[12] = test system: CYP3A4 mRNA; test: in vitro; conditions: human, EC50, induction of CYP3A4 mRNA
Procedure: as §8, §2, §3, §7

[13] = test system: CYP3A4 mRNA
Procedure: as §1, §2, §3, §4

[14] = test system: CYP3A4 mRNA; remark: listed apart in the source
Procedure: as §8, §2, §3, §7

[15] = test system: CYP3A4 mRNA; test: in vitro; conditions: human, EC50, induction of CYP3A4 mRNA, 5F
Procedure: as §1, §2, §3, §4

[16] = test system: CYP3A4 mRNA; conditions: human; remark: listed apart in the source
Procedure: as §5, §2, §3, §4

[17] = 48 h, value of each individual experiment (two per cell)
[18] = 5F HepaRG control cells, 48 h, value of each individual experiment (two per cell), read-out: EC50, induction of CYP2B6 mRNA, 5F
[19] = PXR-KO vs 5F, HepaRG WT cells and PHHs
[20] = 5F cells, 48 h, value of each individual experiment (two per cell)
[21] = EC50, induction of CYP3A4 mRNA, 5F, 5F cells, 48 h, value of each individual experiment (two per cell)
[22] = PXR-KO HepaRG cells, compared with 5F cells
[23] = donor D1 (Hu1455), NE = no effect observed, relative gene expression fold change <2
[24] = cryopreserved primary human hepatocytes, donor D1 (Hu1455)
[25] = cryopreserved primary human hepatocytes, donor D3 (Hu8132)

SMILES | EC50 for CYP2B6 in PXR-KO cells in comparison to other cell types (in words) [1] | E max for CYP2B6 in PXR-KO cells in comparison to other cell types (in words) [1] | E max, induction of CYP2B6 mRNA, 5F [2, 17] | EC50 [2, 17] | EC50 at 48 h [2, 18] [µM] | E max, induction of CYP3A4 mRNA, HepaRG [3] | EC50 [3] [µM] | E max, induction of CYP2B6 mRNA, HepaRG [4] | EC50 [4] [µM] | E max, induction of CYP3A4 mRNA, 5F [6, 20] | EC50 at 48 h [6, 21] [µM] | E max, induction of CYP2B6 mRNA, primary human hepatocyte donor D1 [7, 23] | E max, induction of CYP2B6 mRNA, primary human hepatocyte donor D3 [7] | EC50 at 48 h [8, 24] [µM] | EC50 at 48 h [8, 25] [µM] | EC50 at 48 h ([1]; PXR-KO HepaRG cells, 48 h) [µM] | CYP2B6-induced activity response [10] | EC50 [6, 20] [µM] | CYP3A4 induction response in PXR-KO cells (in words) [13] | also measured
NC(=O)N1c2ccccc2C=Cc2ccccc21 [Carbamazepine, carbamazepine] | increased | lower | 3.1 and 7.4 | 5.4 µM | 8.4 | 33.5 ± 12.6 | 24 ± 12.2 | 10.7 ± 4.3 | 12 ± 7.3 | 29.3 and 21.6 | 37.4 | – | – | – | – | – | – | – | – | E max for CYP3A4 in PXR-KO cells in comparison to other cell types (in words) [5, 19]: ~four‐fold lower; EC50 for CYP3A4 in PXR-KO cells in comparison to other cell types (in words) [5, 19]: similar; EC50 at 48 h ([5]; human, PXR-KO HepaRG cells): 49 µM; EC50 at 48 h ([6]; EC50 of CYP3A4 induction in 5F cells, single value given in text, data the average of two experiments): 38 µM
CO[C@H]1/C=C/O[C@@]2(C)Oc3c(C)c(O)c4c(O)c(c(/C=N/N5CCN(C)CC5)c(O)c4c3C2=O)NC(=O)/C(C)=C\C=C\[C@H](C)[C@H](O)[C@@H](C)[C@@H](O)[C@@H](C)[C@H](OC(C)=O)[C@@H]1C [Rifampicin, rifampicin] | – | – | 18.9 and 12.9 | 1.7 µM and 0.7 µM | – | – | – | 5.2 ± 2.9 | 0.3 ± 0.2 | – | – | 3.9 | 16.3 | 0.1 | 5.5 | – | – | – | – | CYP2B6 induction response in PXR-KO cells (in words) [1, 22]: No response; E max, induction of CYP2B6 mRNA, primary human hepatocyte donor D2 ([7]; donor D2 (Hu1601), NE = no effect observed, relative gene expression fold change <2): 4.3; EC50 at 48 h ([8]; cryopreserved primary human hepatocytes, donor D2 (Hu1601)): 5.2 µM
Clc1ccc(-c2nc3sccn3c2C=NOCc2ccc(Cl)c(Cl)c2)cc1 [CITCO, 6‐(4‐chlorophenyl)imidazo[2,1‐b][1,3]thiazole‐5‐carbaldehyde O‐(3,4‐dichlorobenzyl)oxime] | – | similar | 17.0 and 22.5 | 1 µM | – | 21.1 ± 4.6 | 1.5 ± 0.1 | 14.2 ± 7.4 | 0.03 ± 0.01 | 6.4 and 7.1 | 1.9 | 6.0 | 5.5 | 0.2 | 0.3 | 0.3 | greater in the PXR‐KO cells | 2 | – | E max, induction of CYP3A4 mRNA, primary human hepatocyte donor D1 ([9]; donor D1 (Hu1455), 48 h): 3.5; E max, induction of CYP3A4 mRNA, primary human hepatocyte donor D3 ([9]; donor D3 (Hu8132), 48 h): 2.3; EC50 at 48 h ([9]; donor D1 (Hu1455)): 0.3 µM; EC50 at 48 h ([9]; donor D3 (Hu8132)): 0.4 µM; CYP2B6 induction response in 5F cells (in words) [2]: responsive; EC50 at 48 h ([2]; 5F HepaRG control cells, single value given in text, data the average of two experiments, read-out: EC50 of CYP2B6 induction in 5F cells): 0.5 µM; CYP3A4 induction response in PXR-KO cells (in words) [5, 22]: maintained
CCC1(c2ccccc2)C(=O)NC(=O)NC1=O [Phenobarbital, phenobarbital] | in agreement between the cell lines | – | 5.9 and 5.5 | 195 µM | – | – | – | 68.9 ± 47.3 | 170 ± 6.8 | – | – | 20.2 | 26.3 | – | – | 98 | greater in the PXR‐KO cells | – | much reduced | E max, induction of CYP3A4 mRNA, 5F [11]: 17.3, 28.1; EC50 [11]: 166 µM; EC50 ([12]; primary human hepatocyte donor D1): 250 µM; EC50 ([12]; primary human hepatocyte donor D2): 366 µM; EC50 ([12]; primary human hepatocyte donor D3): 177 µM; E max of CYP2B6 induction in PXR-KO cells ([1]; PXR-KO HepaRG cells, 48 h): 11.8; E max of CYP3A4 induction in PXR-KO cells ([13]; human): 3.3; EC50 at 48 h ([2]; 48 h, value of each individual experiment (two per cell), read-out: EC50, induction of CYP2B6 mRNA, 5F): 145 µM; E max, induction of CYP3A4 mRNA, primary human hepatocyte donor D2 ([14]; hepatocytes): 13.3; E max, induction of CYP3A4 mRNA, primary human hepatocyte donor D3 ([14]; hepatocytes): 81.8; EC50 ([14]; male, human): 251 µM; EC50 ([7]; read-out: EC50, induction of CYP2B6 mRNA, primary human hepatocyte donor D1, donor D1 (Hu1455)): 98.9 µM; EC50 [15]: 108 µM; E max, induction of CYP3A4 mRNA, HepaRG [16]: 110.0 ± 12.8; EC50 at 48 h ([8]; male): 186 µM
O=C1NC(=O)C(c2ccccc2)(c2ccccc2)N1 [Phenytoin, phenytoin] | increased | lower | 7.3 and 10.6 | 7.8 µM | 5.1 | 89.6 ± 8.1 | 42.6 ± 6.6 | 14.2 ± 3.7 | 2.7 ± 1.7 | 16.0 and 20.8 | 18.1 | – | – | – | – | – | – | 19.9 | much reduced | E max for CYP3A4 in PXR-KO cells in comparison to other cell types (in words) [13]: lower; EC50 for CYP3A4 in PXR-KO cells in comparison to other cell types (in words) [13]: increased
